Test results reported in US4868321A, “Isothiocyanate intermediates” (FMC Corporation, priority 1988, dated 1989).
Where a name gives a salt, the structure may show the parent alone.

Experiments:
Format in all cases: in vivo
Green Foxtail [1] = experiment: Preemergence Herbicidal Activity, Green Foxtail; settings: Setaria viridis, pre-emergence
Source text: (§1) The herbicidal data in the following Tables 3 and 4 was obtained in the manner described in PCT published application no. […] In those tables, the test compounds are identified by numbers which correspond to those in Table 1, "kg/ha" is kilograms per hectare, and "% C" is percent control.

Rice [2] = experiment: Preemergence Herbicidal Activity, Rice; settings: Oryza sativa, pre-emergence
Source text: as §1

Green Foxtail [3] = experiment: Postemergence Herbicidal Activity, Green Foxtail; settings: Setaria viridis, post-emergence
Source text: as §1

Wheat [4] = experiment: Postemergence Herbicidal Activity, Wheat; settings: Triticum aestivum, post-emergence
Source text: as §1

Velvetleaf [5] = experiment: Preemergence Herbicidal Activity, Velvetleaf; settings: Abutilon theophrasti, pre-emergence
Source text: (§2) The herbicidal data in the following Tables 3 and 4 was obtained in the manner described in PCT published application no. WO 85/01939, previously mentioned, usually employing solutions of the herbicidal compound in 50/50 acetone/water mixtures. In those tables, the test compounds are identified by numbers which correspond to those in Table 1, "kg/ha" is kilograms per hectare, and "% C" is percent control.

Barnyardgrass [6] = experiment: Preemergence Herbicidal Activity, Barnyardgrass; settings: Echinochloa crus-galli, pre-emergence
Source text: as §1

Field Corn [7] = experiment: Preemergence Herbicidal Activity, Field Corn; settings: Zea mays, pre-emergence
Source text: as §1

Morningglory [8] = experiment: Preemergence Herbicidal Activity, Morningglory; settings: Ipomoea, pre-emergence
Source text: as §2

Field Bindweed [9] = experiment: Preemergence Herbicidal Activity, Field Bindweed; settings: pre-emergence
Source text: as §2

Morningglory [10] = experiment: Postemergence Herbicidal Activity, Morningglory
Source text: as §2

Velvetleaf [11] = experiment: Postemergence Herbicidal Activity, Velvetleaf; settings: Abutilon theophrasti, post-emergence
Source text: as §2

Johnsongrass [12] = experiment: Postemergence Herbicidal Activity, Johnsongrass; settings: Sorghum halepense, post-emergence
Source text: as §1

Barnyardgrass [13] = experiment: Postemergence Herbicidal Activity, Barnyardgrass; settings: Echinochloa crus-galli, post-emergence
Source text: as §1

Cotton [14] = experiment: Preemergence Herbicidal Activity, Cotton; settings: Gossypium hirsutum, pre-emergence
Source text: as §2

Cotton [15] = experiment: Postemergence Herbicidal Activity, Cotton; settings: Gossypium hirsutum, post-emergence
Source text: as §2

Soybean [16] = experiment: Postemergence Herbicidal Activity, Soybean; settings: Glycine max, post-emergence
Source text: as §1

Johnsongrass [17] = experiment: Preemergence Herbicidal Activity, Johnsongrass; settings: Sorghum halepense, pre-emergence
Source text: as §1

Soybean [18] = experiment: Preemergence Herbicidal Activity, Soybean
Source text: as §1

Field Bindweed [19] = experiment: Postemergence Herbicidal Activity, Field Bindweed; settings: post-emergence, 8.0 kg/ha
Source text: as §2

Wheat [20] = experiment: Preemergence Herbicidal Activity, Wheat; settings: Triticum aestivum, pre-emergence
Source text: as §1

Field Corn [21] = experiment: Postemergence Herbicidal Activity, Field Corn; settings: Zea mays, post-emergence
Source text: as §1

Rice [22] = experiment: Postemergence Herbicidal Activity, Rice; settings: Oryza sativa, post-emergence
Source text: as §1

`CCCS(=O)(=O)N(c1cc(-n2nnn(CCCF)c2=O)ccc1Cl)S(=O)(=O)CCC` [Compound 23] showed a pest or weed control at 8000 g/ha (Green Foxtail [1]; 8.0 kg/ha) of 95%, a plant injury at 8000 g/ha (Rice [2]; 8.0 kg/ha) of 20% and a pest or weed control at 8000 g/ha (Green Foxtail [3]; 8.0 kg/ha) of 40%. For the same molecule, the plant injury at 8000 g/ha (Wheat [4]; 8.0 kg/ha) was 20%, the pest or weed control at 8000 g/ha (Velvetleaf [5]; 8.0 kg/ha) was 100% and the pest or weed control at 8000 g/ha (Barnyardgrass [6]; 8.0 kg/ha) was 80%. For the same molecule, the plant injury at 8000 g/ha (Field Corn [7]; 8.0 kg/ha) was 90%, the pest or weed control at 8000 g/ha (Morningglory [8]; 8.0 kg/ha) was 70% and the pest or weed control at 8000 g/ha (Field Bindweed [9]; 8.0 kg/ha) was 70%. For the same molecule, the pest or weed control at 8000 g/ha (Morningglory [10]; Ipomoea, post-emergence, 8.0 kg/ha) was 60%, the pest or weed control at 8000 g/ha (Velvetleaf [11]; 8.0 kg/ha) was 100% and the pest or weed control at 8000 g/ha (Johnsongrass [12]; 8.0 kg/ha) was 40%. It also gave a pest or weed control at 8000 g/ha (Barnyardgrass [13]; 8.0 kg/ha) of 40%, a plant injury at 8000 g/ha (Cotton [14]; 8.0 kg/ha) of 30% and a plant injury at 8000 g/ha (Cotton [15]; 8.0 kg/ha) of 60%. The plant injury at 8000 g/ha (Soybean [16]; 8.0 kg/ha) was 40%, the pest or weed control at 8000 g/ha (Johnsongrass [17]; 8.0 kg/ha) was 50% and the plant injury at 8000 g/ha (Soybean [18]; Glycine max, pre-emergence, 8.0 kg/ha) was 10%. For the same molecule, the pest or weed control at 8000 g/ha (Field Bindweed [19]) was 50%, the plant injury at 8000 g/ha (Wheat [20]; 8.0 kg/ha) was 40% and the plant injury at 8000 g/ha (Field Corn [21]; 8.0 kg/ha) was 30%.
In the case of `CCCS(=O)(=O)N(c1cc(-n2nnn(CCCF)c2=O)c(F)cc1Cl)S(=O)(=O)CCC` [Compound 26, 1-[4-chloro-2-fluoro-5-[bis(N--propylsulfonyl)amino]phenyl]-1,4-dihydro-4-(3-fluoropropyl)-5H--tetrazol-5-one], the pest or weed control at 500 g/ha (Green Foxtail [1]; 0.5 kg/ha) is reported as 60%, the plant injury at 500 g/ha (Rice [2]; 0.5 kg/ha) is reported as 20% and the plant injury at 500 g/ha (Rice [22]; 0.5 kg/ha) is reported as 40%. For the same molecule, the pest or weed control at 500 g/ha (Green Foxtail [3]; 0.5 kg/ha) was 80%, the plant injury at 500 g/ha (Wheat [4]; 0.5 kg/ha) was 90% and the pest or weed control at 500 g/ha (Velvetleaf [5]; 0.5 kg/ha) was 100%. The pest or weed control at 500 g/ha (Barnyardgrass [6]; 0.5 kg/ha) was 100%, the plant injury at 500 g/ha (Field Corn [7]; 0.5 kg/ha) was 90% and the pest or weed control at 500 g/ha (Morningglory [8]; 0.5 kg/ha) was 60%. It also gave a pest or weed control at 500 g/ha (Morningglory [10]; Ipomoea, post-emergence, 0.5 kg/ha) of 100%, a pest or weed control at 500 g/ha (Velvetleaf [11]; 0.5 kg/ha) of 100% and a pest or weed control at 500 g/ha (Johnsongrass [12]; 0.5 kg/ha) of 70%. The pest or weed control at 500 g/ha (Barnyardgrass [13]; 0.5 kg/ha) was 80%, the plant injury at 500 g/ha (Cotton [14]; 0.5 kg/ha) was 50% and the plant injury at 500 g/ha (Cotton [15]; 0.5 kg/ha) was 100%. For the same molecule, the plant injury at 500 g/ha (Soybean [16]; 0.5 kg/ha) was 50%, the pest or weed control at 500 g/ha (Johnsongrass [17]; 0.5 kg/ha) was 95% and the plant injury at 500 g/ha (Soybean [18]; Glycine max, pre-emergence, 0.5 kg/ha) was 0%. It also gave a plant injury at 500 g/ha (Wheat [20]; 0.5 kg/ha) of 60% and a plant injury at 500 g/ha (Field Corn [21]; 0.5 kg/ha) of 100%.
For `CCS(=O)(=O)Nc1cc(-n2nnn(CCCF)c2=O)c(F)cc1Cl` [Compound 31, 1-[4-Chloro-2-fluoro-5-(N--ethylsulfonylamino)phenyl]-1,4-dihydro-4-(3-fluoropropyl)-5H--tetrazol-5-one potassium salt], the pest or weed control at 250 g/ha (Green Foxtail [1]; 0.25 kg/ha) was 50%, the plant injury at 250 g/ha (Rice [2]; 0.25 kg/ha) was 40% and the plant injury at 250 g/ha (Rice [22]; 0.25 kg/ha) was 40%. For the same molecule, the pest or weed control at 250 g/ha (Green Foxtail [3]; 0.25 kg/ha) was 60%, the plant injury at 250 g/ha (Wheat [4]; 0.25 kg/ha) was 40% and the pest or weed control at 250 g/ha (Velvetleaf [5]; 0.25 kg/ha) was 100%. The pest or weed control at 250 g/ha (Barnyardgrass [6]; 0.25 kg/ha) was 95%, the plant injury at 250 g/ha (Field Corn [7]; 0.25 kg/ha) was 30% and the pest or weed control at 250 g/ha (Morningglory [8]; 0.25 kg/ha) was 100%. The pest or weed control at 250 g/ha (Field Bindweed [9]; 0.25 kg/ha) was 100%, the “Postemergence Herbicidal Activity” value (Morningglory [10]; 0.25 kg/ha, potassium salt) was 100 % Control and the pest or weed control at 250 g/ha (Johnsongrass [12]; 0.25 kg/ha) was 60%. The pest or weed control at 250 g/ha (Barnyardgrass [13]; 0.25 kg/ha) was 80%, the plant injury at 250 g/ha (Cotton [14]; 0.25 kg/ha) was 100% and the plant injury at 250 g/ha (Soybean [16]; 0.25 kg/ha) was 80%. The pest or weed control at 250 g/ha (Johnsongrass [17]; 0.25 kg/ha) was 70%, the “Preemergence Herbicidal Activity” value (Soybean [18]; 0.25 kg/ha, potassium salt) was 10 % Control and the plant injury at 250 g/ha (Wheat [20]; 0.25 kg/ha) was 20%. For the same molecule, the plant injury at 250 g/ha (Field Corn [21]; 0.25 kg/ha) was 30%.
For `CCS(=O)(=O)N(c1cc(-n2nnn(C)c2=O)c(F)cc1Cl)S(=O)(=O)CC` [Compound 41, 1-[4-Chloro-2-fluoro-5-[bis(N--ethylsulfonyl)amino]phenyl]-4,5-dihydro-4-methyl-5H--tetrazol-5-one], the pest or weed control at 2000 g/ha (Green Foxtail [1]; 2.0 kg/ha) was 95%, the plant injury at 2000 g/ha (Rice [2]; 2.0 kg/ha) was 10% and the pest or weed control at 2000 g/ha (Velvetleaf [5]; 2.0 kg/ha) was 100%. The pest or weed control at 2000 g/ha (Barnyardgrass [6]; 2.0 kg/ha) was 80%, the plant injury at 2000 g/ha (Field Corn [7]; 2.0 kg/ha) was 40% and the pest or weed control at 2000 g/ha (Morningglory [8]; 2.0 kg/ha) was 100%. It also gave a pest or weed control at 2000 g/ha (Field Bindweed [9]; 2.0 kg/ha) of 100%, a plant injury at 2000 g/ha (Cotton [14]; 2.0 kg/ha) of 95% and a pest or weed control at 2000 g/ha (Johnsongrass [17]; 2.0 kg/ha) of 20%. For the same molecule, the plant injury at 2000 g/ha (Soybean [18]; Glycine max, pre-emergence, 2.0 kg/ha) was 50% and the plant injury at 2000 g/ha (Wheat [20]; 2.0 kg/ha) was 10%.
